“Also recorded” adds a separate entry of the source. Where a SMILES comes first, the peptide text is derived from it. [ ]: non-standard residue; d: D form. The star is where a group is joined. Sta = CC(C)C[C@H](N)[C@@H](O)CC(=O)O; Isovaleryl = CC(C)CC(=O)*; Cbz = O=C(OCc1ccccc1)*; CH2F = FC*
How the values were obtained:
VSV-G = assay type: cell-based
SARS-CoV S protein [1] = test: microbe, parasite or virus in culture; assay type: cell-based
MLV-Amphotropic Env = assay type: cell-based
EboV GP glycoprotein = assay type: cell-based
human cathepsin L = human cathepsin L (Homo sapiens, UniProt P07711); assay type: biochemical
thrombin = settings: read-out: Ki, inhibition of thrombin; cited from earlier work
caspase 6 [2] = target: T1, caspase 6 (Homo sapiens, UniProt P55212); test: biochemical
T1 sequence (P55212 24-179 limits assumed): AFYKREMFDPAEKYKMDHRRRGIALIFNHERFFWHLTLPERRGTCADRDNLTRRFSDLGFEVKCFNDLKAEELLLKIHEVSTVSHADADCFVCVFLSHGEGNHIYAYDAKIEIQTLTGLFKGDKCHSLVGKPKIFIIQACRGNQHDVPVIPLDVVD
T1 sequence (P55212 194-293 limits assumed): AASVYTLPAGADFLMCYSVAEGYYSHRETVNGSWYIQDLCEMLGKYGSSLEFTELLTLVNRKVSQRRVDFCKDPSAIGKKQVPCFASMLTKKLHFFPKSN

caspase 6 [3] = target: T1, caspase 6; assay type: biochemical
caspase 2 [4] = target: T2, caspase 2 (Homo sapiens, UniProt P42575); test: biochemical
T2 sequence (P42575 170-325 limits assumed): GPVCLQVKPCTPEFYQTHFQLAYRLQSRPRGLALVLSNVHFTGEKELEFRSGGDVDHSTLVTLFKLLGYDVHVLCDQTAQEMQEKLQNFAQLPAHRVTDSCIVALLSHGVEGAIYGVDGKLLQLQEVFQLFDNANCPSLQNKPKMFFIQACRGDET
T2 sequence (P42575 348-452 limits assumed): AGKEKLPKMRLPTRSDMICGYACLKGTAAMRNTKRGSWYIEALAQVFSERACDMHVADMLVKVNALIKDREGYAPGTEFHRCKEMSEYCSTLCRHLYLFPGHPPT

caspase 4 [5] = target: T3, caspase 4 (Homo sapiens, UniProt P49662); assay type: biochemical
T3 sequence (P49662 81-270 limits assumed): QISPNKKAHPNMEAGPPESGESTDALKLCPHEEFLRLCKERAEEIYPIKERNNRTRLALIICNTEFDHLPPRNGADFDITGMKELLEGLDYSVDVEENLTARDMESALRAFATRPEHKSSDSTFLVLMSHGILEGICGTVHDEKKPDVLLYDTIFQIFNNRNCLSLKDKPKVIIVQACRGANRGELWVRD
T3 sequence (P49662 290-377 limits assumed): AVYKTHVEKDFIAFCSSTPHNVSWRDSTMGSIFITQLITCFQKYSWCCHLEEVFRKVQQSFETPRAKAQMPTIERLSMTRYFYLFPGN

caspase 4 [6] = target: T3, caspase 4; test: biochemical
caspase 2 [7] = target: T2, caspase 2; assay type: biochemical
SARS-CoV S protein [8] = assay type: cell-based
ASLV-A Env = assay type: cell-based
SARS-CoV (strain Tor2) = assay type: cell-based
[9] = IC50 against the three caspases (range stated for all)

human cathepsin L, sequence (P07711 114-333): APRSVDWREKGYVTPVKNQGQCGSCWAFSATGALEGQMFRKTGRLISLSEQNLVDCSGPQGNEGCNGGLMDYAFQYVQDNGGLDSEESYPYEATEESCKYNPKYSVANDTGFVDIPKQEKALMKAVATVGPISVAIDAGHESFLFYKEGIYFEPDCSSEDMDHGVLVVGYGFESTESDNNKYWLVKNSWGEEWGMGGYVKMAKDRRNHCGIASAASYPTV

Molecule: CCCNC(=O)[C@H]1O[C@@H]1C(=O)N[C@H](C(=O)N1CCC[C@H]1C(=O)O)[C@@H](C)CC [CA-074]
- effect on infection of HIV-luc(VSV-G) (VSV-G): did not dramatically affect infection
- effect on infection of HIV-luc(SARS S) (SARS-CoV S protein [1]): did not dramatically affect infection

Molecule: CC(C)[C@H](NC(=O)OCc1ccccc1)C(=O)N[C@H](C=O)Cc1ccccc1 [MDL 28170, Z-Val-Phe-CHO] (Cbz-Val-Phe-aldehyde)
- effect on VSV pseudotype entry (VSV-G): not inhibited
- effect on SARS CoV S pseudotype entry/infection (SARS-CoV S protein [1]): inhibits entry; also recorded: potently and specifically inhibits pseudotype infection
- IC50 (SARS-CoV S protein [1]; read-out: IC50, pseudotype virion entry into cells): ~0.1 µM
- effect on MLV pseudotype entry (MLV-Amphotropic Env): not inhibited
- effect on EboV GP pseudotype entry/infection (EboV GP glycoprotein): inhibits entry; also recorded: potently and specifically inhibits pseudotype infection
- hit in cathepsin L microarray screen (human cathepsin L): inhibitors and hits

Molecule: CC(C)C[C@H](NC(=O)[C@H](CC(C)C)NC(=O)[C@H](CC(C)C)NC(=O)OCc1ccccc1)C(=O)CF [Z-LLL-FMK, Z-leu-leu-leu-fluoromethyl ketone] (Cbz-Leu-Leu-Leu-CH2F)
- effect on infection of HIV-luc(VSV-G) (VSV-G): but not HIV-luc(VSV-G)
- effect on infection of HIV-luc(SARS S) (SARS-CoV S protein [1]): efficiently inhibited infection

Molecule: Cl.N [ammonium chloride]
- effect on infection mediated by VSV-G (VSV-G): dramatically reduced infection
- effect on infection mediated by S protein (SARS-CoV S protein [1]): dramatically reduced infection

Molecule: N=C(N)c1ccccc1 [benzamidine]
- Ki (thrombin): 300 to 1000 µM

Molecule: CC1=NN(c2ccccc2)C(=O)C1=NNc1c(Br)cc(Br)cc1Br [compound 1, 5-methyl-2-phenyl-4-[(2,4,6-tribromo-phenyl)-hydrazono]-2,4-dihydro-pyrazol-3-one]
- inhibition (caspase 6 [2]): 100%
- IC50 (caspase 6 [2]; IC50 against caspase 6): ~5000 µM
- IC50 (caspase 6 [2]; [9]): 500 to 5000 µM
- substrate conversion in microarray screen (caspase 6 [3]): low substrate conversion
- inhibition (caspase 2 [4]): 100%
- IC50 (caspase 2 [4]; IC50 against caspase 2): ~5000 µM
- IC50 (caspase 2 [4]; [9]): 500 to 5000 µM
- substrate conversion in microarray screen (caspase 4 [5]): reduced substrate conversion
- inhibition (caspase 4 [6]): 100%
- IC50 (caspase 4 [6]; IC50 against caspase 4): ~500 µM
- IC50 (caspase 4 [6]; [9]): 500 to 5000 µM
- substrate conversion in microarray screen (caspase 2 [7]): reduced substrate conversion

Molecule: CC(=O)N[C@@H](CC(C)C)C(=O)N[C@@H](CC(C)C)C(=O)N[C@H](C=O)CCCNC(=N)N [leupeptin]
- effect on infection mediated by VSV-G (VSV-G): not inhibited
- effect on S protein-mediated intervirion fusion (luciferase activity) (SARS-CoV S protein [8]): S protein-mediated fusion was lost
- concentration necessary to achieve 95% inhibition of S protein-mediated entry (SARS-CoV S protein [1]): 100 µg/mL
- inhibition at 10 µg/mL (SARS-CoV S protein [1]; Severe acute respiratory syndrome coronavirus, HEK-293T, 10 μg/ml, read-out: inhibition of entry mediated by SARS-CoV S protein): > 95%
- effect on infection mediated by MLV-Amphotropic Env (MLV-Amphotropic Env): not inhibited
- effect on ASLV-A Env mediated infection (ASLV-A Env): no effect
- hit in cathepsin L microarray screen (human cathepsin L): inhibitors and hits
- effect on SARS-CoV replication (SARS-CoV (strain Tor2)): little or no effect
- effect on infection by replication-competent SARS-CoV (SARS-CoV (strain Tor2)): inhibited

Molecule: CC(C)CC(=O)N[C@H](C(=O)N[C@H](C(=O)N[C@@H](CC(C)C)[C@@H](O)CC(=O)N[C@@H](C)C(=O)N[C@@H](CC(C)C)[C@@H](O)CC(=O)O)C(C)C)C(C)C [pepstatin] (Isovaleryl-VV[Sta]A[Sta]-OH)
- effect on VSV-G mediated infection (VSV-G): had no effect
- effect on infection by pseudotypes bearing S protein (SARS-CoV S protein [1]): had no effect

Molecule: aprotinin
- effect on infection by pseudotypes bearing S protein (SARS-CoV S protein [1]): had no effect
